Experimental data published in US20260248800A1, “FERROPTOSIS INHIBITORS AND USES THEREOF” (UNIVERSITY OF OTTAWA, priority 2022, published 2026).
Where two headings read alike, the source gives them in different places.

Legend:
[1] = MeOAMVN-initiated co-autoxidation of STY-BODIPY and egg PC liposomes (FENIX); assay type: biochemical; conditions: for n (radical-trapping stoichiometry): MeOAMVN-initiated co-autoxidation of STY-BODIPY and egg PC liposomes; for predicted increase in kinh^lip relative to PNX: predicted/estimated kinh^lip vs PNX
[2] = test system: Pfa-1 mouse embryonic fibroblasts (MEFs); experiment: cells; conditions: Fibroblast
[3] = H-bond acidity (α2^H) of the RTA by 1H NMR; assay type: physicochemical; conditions: estimated from the 1H NMR chemical shift difference of the amine proton in DMSO-d6 and benzene-d6
[4] = apparent inhibition rate constant, MeOAMVN-initiated autoxidation of egg PC liposomes, determined by absorbance (STY-BODIPY 10-20 μM, 565 nm)
[5] = 5 h, read-out: Pfa-1 MEF Ferroptosis EC50, RSL3-induced cell death (150 nM for 5 hours), AquaBluer
[6] = predicted from log kinh^0, α2^H and β2^H=0.69 using Eq. 4 (too reactive to be determined directly)
[7] = Table 6, from survival curve of RSL3 induced ferroptosis of pfa-1 MEFS
[8] = apparent inhibition rate constant, MeOAMVN-initiated autoxidation of egg PC liposomes, determined by fluorescence

| SMILES | α2^H [3] | n (radical-trapping stoichiometry) [1] | EC50 [2, 5] [nM] | kinh^lip [1, 8] | other results |
| --- | --- | --- | --- | --- | --- |
| CC(c1ccc2c(c1)Nc1ccc(C(F)(F)F)cc1O2)S(=O)(=O)N1CCN(C)CC1 (centres unmarked) [Compound 48, 2-(1-((4-methylpiperazin-1-yl)sulfonyl)ethyl)-7-(trifluoromethyl)-10H-phenoxazine] | – | – | 16 ± 2 | – | EC50 [2, 7]: 16 ± 2 nM |
| c1ccc2c(c1)Nc1ccccc1[Se]2 [Compound 3, phenoselenazine, reference compound] | 0.36 | 2.3 ± 0.1 | 23 ± 2 | – | kinh^lip [1, 4]: (56 ± 3)^e 10^5 M^−1s^−1 |
| CC(c1ccc2c(c1)Nc1ccccc1O2)S(=O)(=O)NCCN(C)C (centres unmarked) [Compound 43, N-(2-(dimethylamino)ethyl)-1-(10H-phenoxazin-2-yl)ethanesulfonamide] | – | – | 15 ± 1 | – | EC50 [2, 7]: 15 ± 1 nM |
| CN1CCN(S(=O)(=O)c2ccc3c(c2)Oc2ccc(C(C)(C)C)cc2N3)CC1 [Compound 61, 2-tert-Butyl-7-(4-methylpiperazin-1-ylsulfonyl)-phenoxazine] | – | – | 15 ± 1 | – | – |
| O=[N+]([O-])c1ccc2c(c1)Oc1cc([N+](=O)[O-])ccc1N2 [Compound 19, 3,7-Dinitrophenoxazine] | 0.72 | – | 405 | – | kinh^lip [1, 4]: (1.3 ± 0.1)^e 10^5 M^−1s^−1 |
| CC(C)(C)c1ccc2c(c1)Oc1cc(C(C)(C)C)ccc1N2 [Compound 34, 3,7-di-tert-butylphenoxazine] | – | – | 7.4 ± 0.1 | – | kinh^lip [1, 6]: 1280 ^f 10^5 M^−1s^−1; EC50 [2, 7]: 7.4 ± 0.1 nM |
| CC(c1ccc2c(c1)Nc1ccccc1O2)S(=O)(=O)N1CCNCC1 (centres unmarked) [Compound 45, 2-(1-(piperazin-1-ylsulfonyl)ethyl)-10H-phenoxazine] | – | – | 13 ± 1 | – | EC50 [2, 7]: 13 ± 1 nM |
| CC(C)(C)c1ccc2c(c1)Nc1cc(C(C)(C)C)ccc1O2 [Compound 33, 2,8-di-tert-butylphenoxazine] | – | – | 7.2 ± 0.4 | – | kinh^lip [1, 6]: 730 ^f 10^5 M^−1s^−1; EC50 [2, 7]: 7.2 ± 0.4 nM |
| CC(C)(C)c1ccc2c(c1)Nc1ccc(S(=O)(=O)N3CCNCC3)cc1O2 [Compound 60, 2-tert-Butyl-7-(piperazin-1-ylsulfonyl)-phenoxazine] | – | – | 3 ± 0.2 | – | EC50 [2, 7]: 3 ± 0.2 nM |
| N#Cc1ccc2c(c1)Oc1cc(C=O)ccc1N2 [Compound 14, 3-Cyano-7-formylphenoxazine] | 0.64 | – | – | (7.1 ± 0.1) 10^5 M^−1s^−1 | EC50 ([2]; 5 h, read-out: Pfa-1 MEF Ferroptosis EC50): 240 ± 16 nM |
| CCN(CC)S(=O)(=O)c1ccc2c(c1)Oc1ccccc1N2 [Compound 65, N,N-diethyl-3-sulfonamidephenoxazine] | – | – | 31 ± 1 | – | – |
| CC(c1ccc2c(c1)Nc1ccccc1O2)S(=O)(=O)N1CCN(C)CC1 (centres unmarked) [Compound 47, 2-(1-((4-methylpiperazin-1-yl)sulfonyl)ethyl)-10H-phenoxazine] | – | – | 45 ± 6 | – | EC50 [2, 7]: 45 ± 6 nM |
| FC(F)(F)c1ccc2c(c1)Oc1ccccc1N2 [Compound 9, 3-trifluoromethylphenoxazine] | – | 3.0 ± 0.1 | 12 | (42 ± 2) 10^5 M^−1s^−1 | EC50 [2, 7]: 12 ± 1 nM |

Continued, in another order:

| α2^H [3] | SMILES | n (radical-trapping stoichiometry) [1] | EC50 [2, 5] [nM] | kinh^lip [1, 8] | other results |
| --- | --- | --- | --- | --- | --- |
| 0.60 | Cc1ccc2c(c1)Oc1cc([N+](=O)[O-])ccc1N2 [Compound 16, 3-Methyl-7-nitrophenoxazine] | 3.8 ± 0.3 | 15 ± 1 | – | kinh^lip [1, 4]: (23 ± 2)^e 10^5 M^−1s^−1 |
| 0.12 | Cc1cccc2c1Nc1c(C)cccc1O2 [Compound 36, 1,9-Dimethylphenoxazine] | – | 14 | – | kinh^lip [1, 6]: 1150 ^f 10^5 M^−1s^−1 |
| 0.45 | FC(F)(F)c1ccc2c(c1)Sc1ccccc1N2 [Compound 26, 3-trifluoromethylphenothiazine, reference compound] | 2.6 ± 0.1 | 41 ± 5 | (9.8 ± 0.5) 10^5 M^−1s^−1 | – |
| 0.55 | COc1ccc2c(c1)Oc1cc(C#N)ccc1N2 [Compound 22, 3-Methoxy-7-cyanophenoxazine] | 3.1 ± 0.3 | 42 ± 6 | – | kinh^lip [1, 4]: (133 ± 15)^e 10^5 M^−1s^−1 |
| 0.47 | O=Cc1ccc2c(c1)Sc1ccccc1N2 [Compound 27, 3-formylphenothiazine, reference compound] | 2.2 ± 0.1 | 140 ± 10 | (14 ± 1) 10^5 M^−1s^−1 | – |
| 0.42 | COc1ccc2c(c1)Oc1ccccc1N2 [Compound 39, 3-methoxyphenoxazine] | – | 12 | – | kinh^lip [1, 6]: 1490 ^f 10^5 M^−1s^−1; predicted increase in kinh^lip relative to PNX [1]: 6.7 fold |
| 0.10 | Cc1cc(C)c2c(c1)Oc1cc(C)cc(C)c1N2 [Compound 38, 1,3,7,9-Tetramethylphenoxazine] | – | 7.6 ± 0.2 | – | kinh^lip [1, 6]: 1500 ^f 10^5 M^−1s^−1 |
| 0.52 | O=[N+]([O-])c1ccc2c(c1)Sc1ccccc1N2 [Compound 28, 3-nitrophenothiazine, reference compound] | 2.0 ± 0.1 | 140 ± 18 | (5.3 ± 0.3) 10^5 M^−1s^−1 | – |
| 0.55 | Cc1ccc2c(c1)Oc1cc(C#N)ccc1N2 [Compound 21, 3-Methyl-7-cyanophenoxazine] | 3.5 ± 0.1 | 22 ± 5 | (44 ± 6) 10^5 M^−1s^−1 | – |
| 0.06 | Cc1cccc2c1Nc1c(C)cccc1S2 [Compound 31, 1,9-dimethylphenothiazine, reference compound] | 1.7 ± 0.1 | 35 ± 2 | (98 ± 5) 10^5 M^−1s^−1 | – |
| 0.56 | N#Cc1ccc2c(c1)Oc1ccccc1N2 [Compound 20, 3-cyanophenoxazine] | 3.6 ± 0.1 | 58 ± 1 | (27 ± 2) 10^5 M^−1s^−1 | – |
| 0.63 | O=Cc1ccc2c(c1)Oc1cc(C=O)ccc1N2 [Compound 13, 3,7-Diformylphenoxazine] | 3.2 ± 0.1 | 340 ± 49 | (10 ± 1) 10^5 M^−1s^−1 | – |
| 0.40 | COc1ccc2c(c1)Oc1cc(OC)ccc1N2 [Compound 40, 3,7-dimethoxyphenoxazine] | – | 11 | – | kinh^lip (predicted/estimated) ([1]; estimated from kinh^0 and effective β2^H of egg PC liposomes): 6e+06 M⁻¹ s⁻¹; kinh^lip [1, 6]: 6530 ^f 10^5 M^−1s^−1 |
| 0.60 | COc1ccc2c(c1)Oc1cc([N+](=O)[O-])ccc1N2 [Compound 17, 3-nitro-7-methoxyphenoxazine] | 2.9 ± 0.2 | 31 ± 1 | – | kinh^lip [1, 4]: (61 ± 4)e 10^5 M^−1s^−1 |
| 0.49 | c1ccc2c(c1)Nc1cc3ccccc3cc1O2 [Compound 4, 12H-Benzo[b]phenoxazine] | 2.4 ± 0.1 | 5.2 ± 0.9 | (101 ± 12) 10^5 M^−1s^−1 | – |
| 0.62 | O=[N+]([O-])c1ccc2c(c1)Oc1ccccc1N2 [Compound 15, 3-nitrophenoxazine] | 2.2 ± 0.1 | 43 | – | kinh^lip [1, 4]: (10 ± 1)^e 10^5 M^−1s^−1 |
| 0.34 | COc1ccc2c(c1)Sc1cc(OC)ccc1N2 [Compound 32, 3,7-dimethoxyphenothiazine, reference compound] | – | 9 | – | kinh^lip [1, 6]: 840 ^f 10^5 M^−1s^−1; predicted increase in kinh^lip relative to PNX [1]: 3.8 fold |
